PMC12448638, “The association between diet estrogenicity in exotic felids and poor spermatozoa quality in tigers (Panthera tigris)” (Biology of Reproduction, 2025)
Like-named read-outs stand apart in the source and are kept apart here.

Legend:
Test in all cases: 3xERE luciferase reporter activation, HEK293
SL ERα = system: T1, SL ERα; type: cell-based, Panthera uncia; settings: agonist, 24 h, 37 °C, corrected for constitutive activity
T1 construct: gene ESR1; full-length ESR1 ORF (1788 bp, about 595 aa), codon-optimised, pcDNA3.1+, HEK293; residues S53, S76, T496, T585

SL ERβ = biological target: T2, SL ERβ (Panthera uncia, UniProt Z9GFH5XYU7); type: cell-based; settings: agonist; 24 h, 37 °C; normalised to β-gal and maximal E2 activation; read-out: SL ER⍺ / EC50
T2 construct: full-length ESR2 ORF (1653 bp, about 550 aa), not codon-optimised, pcDNA3.1+, HEK293; residues S31, S40, I138, A147, G361, R433, Q550

ST ERβ = system: T3, ST ERβ; type: cell-based, Panthera tigris sumatrae; settings: agonist, 24 h, 37 °C
T3 construct: gene ESR2; full-length ESR2 ORF (1653 bp, about 550 aa), codon-optimised, pcDNA3.1+, HEK293; residues S31, S40, V138, A147, E361, R433, E550

ST ERα = biological target: T4, ST ERα (Panthera tigris, UniProt Z9XQL7S1Y6); type: cell-based
T4 construct: full-length ESR1 ORF (1788 bp, about 595 aa), codon-optimised, pcDNA3.1+, HEK293; residues S53, P76, T496, S585
T4 sequence (Z9XQL7S1Y6 1-595): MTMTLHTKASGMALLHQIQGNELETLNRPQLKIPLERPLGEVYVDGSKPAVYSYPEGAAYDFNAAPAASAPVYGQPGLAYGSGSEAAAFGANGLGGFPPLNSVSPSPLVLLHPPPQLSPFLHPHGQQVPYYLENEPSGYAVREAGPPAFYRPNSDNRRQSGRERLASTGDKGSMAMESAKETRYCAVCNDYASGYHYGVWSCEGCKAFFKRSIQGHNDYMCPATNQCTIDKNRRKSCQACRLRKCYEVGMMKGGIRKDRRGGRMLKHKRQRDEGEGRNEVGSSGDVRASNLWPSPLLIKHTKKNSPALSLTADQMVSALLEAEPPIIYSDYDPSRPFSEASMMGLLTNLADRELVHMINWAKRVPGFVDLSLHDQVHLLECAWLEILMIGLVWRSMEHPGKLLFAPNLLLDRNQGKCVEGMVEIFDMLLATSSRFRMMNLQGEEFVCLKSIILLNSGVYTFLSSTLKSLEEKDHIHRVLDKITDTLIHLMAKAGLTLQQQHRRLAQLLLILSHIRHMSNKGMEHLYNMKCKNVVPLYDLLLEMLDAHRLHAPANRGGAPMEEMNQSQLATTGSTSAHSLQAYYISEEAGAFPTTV

[1] = normalised to β-gal and maximal E2 activation, read-out: SL ER⍺ / EC50
[2] = normalised to β-gal and maximal E2 activation, read-out: ST ER⍺ / EC50
[3] = normalised to β-gal, read-out: EC50

EC50 (SL ERβ) | EC50 (ST ERα; read-out: ST ER⍺ / EC50) | EC50 (ST ERα; read-out: EC50) | Structure (SMILES) | EC50 (SL ERα; [1]) | EC50 (ST ERβ; [2]) | EC50 (SL ERα; [3]) | EC50 (ST ERβ; [3])
26 nM | 131 nM |  | O=c1oc2cc(O)ccc2c2oc3cc(O)ccc3c12 [COUM, coumestrol] | 41.3 nM | 8.17 nM |  | 
 |  |  | O=c1c(-c2ccc(O)cc2)coc2cc(O)ccc12 [DAID, daidzein] |  | 793 nM |  | 
 |  | 0.00611 nM | C[C@]12CC[C@@H]3c4ccc(O)cc4CC[C@H]3[C@@H]1CC[C@@H]2O [E2, 17β-estradiol] |  |  | 0.00969 nM | 0.041 nM
291 nM | 1890 nM |  | O=c1c(-c2ccc(O)cc2)coc2cc(O)cc(O)c12 [GEN, genistein] | 1670 nM | 22.3 nM |  | 
